Results: patent US20250339531A1, “DUX4 POLYPEPTIDES AND NUCLEIC ACIDS FOR TREATING INFLAMMATORY AND AUTOIMMUNE CONDITIONS” (Fred Hutchinson Cancer Center, priority 2021, published 2025)
“Also recorded” adds a separate entry of the source. Where a SMILES comes first, the peptide text is derived from it. The star is where a group is joined. Cbz = O=C(OCc1ccccc1)*

Key:
[1] = tested on: MHC-I, PSMB8, PSMB9, and PSMB10; test: Immunoblot of IFNG-induced MHC-I and immunoproteasome protein in MB135 myoblasts treated with inhibitors; format: cell-based, human; details: MB135 myoblasts without DUX4 induction, agent then IFNG 16 h; 4EGI-1 at 50 uM
Protocol: To test if mTOR inactivation was sufficient to block MHC-I and immunoproteasome protein levels in the absence of DUX4, parental MB135 myoblasts were treated with mTOR inhibitors everolimus or Torin2. Everolimus is a second-generation rapamycin analog with binding specificity for mTORC1. […] To further validate the role of 4EBP1 in blocking MHC-I and immunoproteasome protein expression, MB135 cells were treated with 4EGI-1, a small molecule that pharmacologically mimics 4EBP function and inhibits eIF4E.
(§1) Protein samples were harvested in RIPA buffer [150 mM NaCl, 1% NP-40, 0.5% Na-deocycholate, 1% SDS, 25 mM Tris-HCl pH7.4] supplemented with protease and phosphatase inhibitor tablets (Pierce), followed by sonication in Diagenode Bioruptor. Lysate was cleared by centrifugation at 16000×g and quantified using a Pierce BCA assay (Thermo Fisher Scientific). Samples were run on NuPAGE precast polyacrylamide gels (Invitrogen) and transferred to PVDF membrane. Membranes were blocked in PBS containing 0.1% Tween-20 and 5% non-fat dry milk before overnight incubation at 4° C. with primary antibodies (see resource table for a list of antibodies used in this study). Membranes were incubated with horseradish peroxidase-conjugated secondary antibodies for 1 hour at room temperature and SuperSignal chemiluminescent substrate (Thermo Scientific) was used for detection on film with a Mini-medical 90 processor. Membranes were stripped with Restore Western Blot Stripping Buffer (Pierce).

[2] = tested on: MHC-I, PSMB8, PSMB9, and PSMB10; test: as above; format: cell-based, human; details: MB135iDUX4 cells, data not shown
HLA-E = test: Immunoblot of non-canonical MHC class I HLA-E; format: cell-based, human; details: MB135iDUX4 cells
Protocol: as §1

[3] = tested on: MHC class I proteins (HLA-A/B/C); test: Immunoblot of IFNG-induced MHC class I protein, continuous or pulsed protocol, MB135 myoblasts; format: cell-based, human; details: MB135 cells; for suppression of IFNG-induced MHC class I protein, pulsed protocol: 4 h doxycycline pulse, IFNG added later for 16 h; for suppression of IFNG-induced MHC class I protein, continuous protocol: doxycycline 20 h, IFNG last 16 h
Protocol: (§2) In the “continuous” protocol (similar to the experiments shown in the prior FIGS. 1, 2, 4, 5, and 6), doxycycline is added to induce DUX4 expression at time 0 and four hours later IFNG is added for an additional 16 hours, resulting in 20 hours of continuous DUX4 induction with the last 16 hrs exposed to IFNG.
(§3) In the “pulsed” protocol, doxycycline is added at time 0 to induce DUX4 expression, but after four hours the media is changed to remove the doxycycline, resulting in a pulse of DUX4 mRNA and protein sufficient to induce DUX4 target gene expression (see Resnick et al., Cell Rep. 2019 Nov. 12; 29(7):1812-1820.e5). IFNG is added at 28 hours for a period of 16 hours prior to harvesting the cells. […] This difference is not likely to be due to different amounts of the DUX4 and mutant DUX4 proteins because at the time of harvest both DUX4 and the F67A mutant DUX4 protein levels have declined to similarly low amounts relative to the continuous protocol, but could be due to the activation of DUX4 target genes by the full-length DUX4 since the H3.X/Y proteins show persistent expression in the pulsed protocol.
as §1

[4] = tested on: immunoproteasome subunits PSMB8, PSMB9, and PSMB10; test: Immunoblot of IFNG-induced immunoproteasome subunits; format: cell-based, human; details: MB135 cells; for suppression of IFNG-induced immunoproteasome subunit protein, pulsed protocol: 4 h doxycycline pulse, later IFNG 16 h; for suppression of IFNG-induced immunoproteasome subunit protein, continuous protocol: doxycycline 20 h, IFNG last 16 h
Protocol: as §2, §3, §1

[5] = tested on: interferon-stimulated genes IFIH1, ISG20, CXCL9, and CD74; test: IFNG induction of interferon-stimulated genes, RT-qPCR in MB135 cells with doxycycline-inducible transgenes; format: cell-based, human; details: MB135 cells, doxycycline-induced transgene, continuous protocol, IFNG 16 h
Protocol: (§4) All myoblast experiments were conducted in immortalized MB135 or MB200 myoblast cell lines (isolated from a control or FSHD2 subject, respectively cultured in Ham's F-10 Nutrient Mix (Gibco) supplemented with 15% fetal bovine serum (Hyclone), 100 U/100 μg/ml penicillin/streptomycin (Gibco), 1 μM dexamethasone (Sigma), and 10 ng/ml recombinant human basic fibroblast growth factor (PeproTech). To differentiate the myoblasts to myotubes, media was changed to DMEM supplemented with 10 μg/ml insulin (Sigma) and 10 μg/ml transferrin (Sigma). Cell lines containing doxycycline-inducible transgenes were additionally cultured with 2 μg/mL puromycin (Sigma). Transgenes were induced with 1 μg/mL of doxycycline (Sigma) for 4 hours prior to other treatments for a total of 20 hrs. The Kitra-SRS cells (RRID:CVCL_YI69) were provided by Dr. H. Otani and Osaka University (Nakai et al., 2019) and were cultured in DMEM supplemented with 10% fetal bovine serum (Hyclone) and 100 U/100 μg/ml penicillin/streptomycin (Gibco). Biological replicates consisted of independent but parallel experiments, such as simultaneously stimulating three cell culture plates with IFNγ. Technical replicates consisted of repeat measurements of the same biological sample, such as loading the same biological sample in triplicate for analysis by RT-qPCR.
(§5) Myoblasts were transfected with either (final concentrations) 10 μM 2′,3′-cGAMP (Sigma Aldrich), 2 μg/mL poly(I:C) (Invitrogen), or 1 μg/mL 3′ppp-dsRNA RIG-I ligand (Dan Stetson Lab, UW) using Lipofectamine 2000 according to manufacturer's protocol, or were stimulated with 1000U IFNβ (PeproTech) or 200 ng/ml IFNγ (R+D Systems) by addition directly to cell culture medium. After 16 hours of immune stimulation, RNA was collected from cells using the NucleoSpin RNA Kit (Macherey-Nagel) according to manufacturer's instructions. RNA samples were quantified by nanodrop and 1 μg of RNA per sample was treated with DNase I Amplification Grade (Thermo Fisher), and then synthesized into cDNA using the Superscript IV First-Strand Synthesis System, including oligo dT primers (Invitrogen). qPCR was run in 384-well plates on an Applied Biosystems QuantStudio 6 Flex Real-Time PCR System (ABI) and analyzed in Microsoft Excel.

H3.X/Y = test: Immunoblot of DUX4 target H3.X/Y proteins; format: cell-based, human; details: MB135 cells, continuous or pulsed protocol
Protocol: as §1

[6] = tested on: de novo protein synthesis; test: [35S]-methionine/cysteine metabolic labeling of nascent protein synthesis; format: cell-based; details: human myoblasts, 20-92 h after 4 h doxycycline pulse
Protocol: Cells were treated with and without a 4-hour pulse of doxycycline. Eight hours prior to harvest, cells were incubated in DMEM depleted for methionine and cysteine (Gibco) supplemented with 90 microcurie 35S-methionine/cysteine (Perkin Elmer) and 50 ng/ml […] (R&D Systems). Protein samples were harvested in RIPA buffer [150 mM NaCl, 1% NP-40, 0.5% Na-deocycholate, 1% SDS, 25 mM Tris-HCl pH7.4] supplemented with protease and phosphatase inhibitor tablets (Pierce), followed by sonication in Diagenode Bioruptor. Lysate was cleared by centrifugation at 16000×g and quantified using a Pierce BCA assay (Thermo Scientific). Samples were run on NuPAGE precast polyacrylamide gels (Invitrogen). Gels were stained with InstantBlue Coomassie (Abcam) following manufacturer protocol, placed on whatman paper, wrapped in plastic wrap, and dried. Gels were exposed to phosphor screen, imaged on Typhoon Trio imager, and analyzed with ImageQuant.

ZSCAN4 = test: Activation of DUX4 target gene ZSCAN4, RT-qPCR; format: cell-based, human; details: MB135 cells ± doxycycline
Protocol: as §4, §5

ISG induction by IFNG = test: RNA-seq of IFNG-induced genes in MB135 cells; format: cell-based, human; details: genes induced by IFNG (log 2 fold-change >3), doxycycline + IFNG
Protocol: RNA was extracted as described above from untreated, doxycycline-treated, IFNγ-treated, or doxycycline- and IFNγ-treated samples. RNA was submitted to the Fred Hutchinson Cancer Research Center Genomics Core for library preparation using the TruSeq3 Stranded mRNA kit (Illumina) followed by size and quality analysis by Tapestation (Agilent). Libraries were sequenced on a NextSeq P2-100 (Illumina).
Sequencing analysis was performed using R version 4.0.3 (R Core Team, 2020). Sequencing reads were trimmed using Trimmomatic (version 0.39) (Bolger et al., 2014, Trimmomatic: a flexible trimmer for Illumina sequence data. Bioinformatics 30, 2114-2120), and aligned to the Homo sapiens GRCh38 reference genome with the Rsubread aligner (Liao et al., 2019, The R package Rsubread is easier, faster, cheaper and better for alignment and quantification of RNA sequencing reads. Nucleic Acids Res 47, e47). Gene counts were analyzed using featureCounts (v2.0.1) (Liao et al., 2019, supra) and the Gencode v35 annotation file. Normalization and differential expression analysis were done with DESeq2 (v1.26.0) (Love et al., 2014, Moderated estimation of fold change and dispersion for RNA-seq data with DESeq2. Genome Biol 15, 550).

Molecule	effect on IFNG-induced MHC-I and immunoproteasome protein in the absence of DUX4 [1]	rescue of post-transcriptional suppression after a pulse of DUX4 [2]	effect on IFNG-induced HLA-E protein (HLA-E)	suppression of IFNG-induced MHC class I protein, pulsed protocol ([3]; listed as DUX4(F67A))	suppression of IFNG-induced MHC class I protein, pulsed protocol ([3]; listed as DUX4-F67A)	suppression of IFNG-induced MHC class I protein, pulsed protocol ([3]; listed as F67A mutant)	suppression of IFNG-induced MHC class I protein, continuous protocol ([3]; listed as DUX4(F67A))	suppression of IFNG-induced MHC class I protein, continuous protocol ([3]; listed as DUX4-F67A)	suppression of IFNG-induced immunoproteasome subunit protein, pulsed protocol ([4]; listed as DUX4(F67A))	suppression of IFNG-induced immunoproteasome subunit protein, pulsed protocol ([4]; listed as DUX4 F67A)	suppression of IFNG-induced immunoproteasome subunit protein, continuous protocol ([4]; listed as DUX4(F67A))	suppression of IFNG-induced immunoproteasome subunit protein, continuous protocol ([4]; listed as DUX4 F67A)	suppression of IFNG induction of ISGs (IFIH1, ISG20, CXCL9, CD74) [5]	suppression of IFNG induction of ISGs (IFIH1, ISG20, CXCL9, CD74) ([5]; listed as DUX4-F67A)	induction of DUX4 target H3.X/Y proteins (H3.X/Y)	nascent protein synthesis by 35S labeling [6]	transcriptional activation of DUX4 target gene ZSCAN4 (ZSCAN4)	transcriptional activation of DUX4 target gene ZSCAN4 (ZSCAN4; listed as DUX4-F67A)	IFNG-induced genes whose induction was suppressed more than 2-fold (percent) (ISG induction by IFNG)	IFNG-induced genes whose induction was suppressed more than 4-fold (percent) (ISG induction by IFNG)
CC(C)C[C@@H](C=O)NC(=O)[C@H](CC(C)C)NC(=O)[C@H](CC(C)C)NC(=O)OCc1ccccc1 [MG132] (Cbz-Leu-Leu-Leu-aldehyde)	MHC class I induction, but not HLA-E is blocked	did not rescue post-transcriptional suppression	stable expression of HLA-E protein																	
iDUX4-F67A: DUX4 with phenylalanine to alanine mutation in first homeodomain preventing DNA binding, SEQ ID NOS: 6-7				protein levels were completely rescued	does not suppress MHC class I in the pulse protocol	does not suppress MHC class I in the pulsed protocol	suppressed IFNG-induced MHC-I and the immunoproteasome expression	suppress the IFNG induction of MHC class I expression; also recorded: inhibits MHC class I proteins in only the continuous protocol	protein levels were completely rescued; also recorded: neither suppression of PSMB9 or altered 4EBP1 phosphorylation was observed	does not inhibit at all in the pulsed protocol	suppressed IFNG-induced MHC-I and the immunoproteasome expression	only partially inhibits the IFNG induction of PSMB9 and PSMB10 in the continuous protocol	sufficient to block IFNG-induced ISG expression; also recorded: still suppressed ISG induction by IFNG	fully suppresses the ISG response to IFNG	does not induce expression of the DUX4-regulated H3.X/Y	did not suppress protein translation; also recorded: no significant change	did not activate ZSCAN4	prevents the transcriptional activation of DUX4 regulated genes	70%	41%
CO/C1=C\C(C)=C\[C@@H](C)[C@@H](O)[C@@H](C)C/C(C)=C/C=C/[C@H](OC)[C@@H]([C@@H](C)[C@@H](O)[C@H](C)[C@@]2(O)C[C@@H](O)[C@H](C)[C@@H](C(C)C)O2)OC1=O [Bafilomycin]		did not rescue post-transcriptional suppression																		
